For experiment [1], the target named is Muscarinic acetylcholine receptor M1 (Homo sapiens, UniProt P11229, E170K). The experiment is classed as functional, cell-based, L929.
The target in experiment [2] is T1, Muscarinic acetylcholine receptor M1/M5 chimeric protein (Homo sapiens, UniProt P08912+P11229).
T1 sequence (P11229 whole entry): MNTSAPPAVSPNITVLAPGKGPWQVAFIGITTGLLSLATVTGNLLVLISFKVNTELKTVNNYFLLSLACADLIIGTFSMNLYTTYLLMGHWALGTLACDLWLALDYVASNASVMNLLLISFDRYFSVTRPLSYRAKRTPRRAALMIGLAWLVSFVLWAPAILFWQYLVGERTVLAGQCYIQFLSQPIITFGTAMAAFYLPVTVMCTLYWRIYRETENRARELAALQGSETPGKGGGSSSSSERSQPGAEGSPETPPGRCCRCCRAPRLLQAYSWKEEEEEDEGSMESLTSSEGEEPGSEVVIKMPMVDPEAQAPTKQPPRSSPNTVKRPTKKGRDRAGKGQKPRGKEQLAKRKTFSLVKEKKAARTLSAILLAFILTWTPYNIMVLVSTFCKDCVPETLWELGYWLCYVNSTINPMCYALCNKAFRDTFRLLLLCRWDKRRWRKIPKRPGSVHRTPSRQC
T1 sequence (P08912 whole entry): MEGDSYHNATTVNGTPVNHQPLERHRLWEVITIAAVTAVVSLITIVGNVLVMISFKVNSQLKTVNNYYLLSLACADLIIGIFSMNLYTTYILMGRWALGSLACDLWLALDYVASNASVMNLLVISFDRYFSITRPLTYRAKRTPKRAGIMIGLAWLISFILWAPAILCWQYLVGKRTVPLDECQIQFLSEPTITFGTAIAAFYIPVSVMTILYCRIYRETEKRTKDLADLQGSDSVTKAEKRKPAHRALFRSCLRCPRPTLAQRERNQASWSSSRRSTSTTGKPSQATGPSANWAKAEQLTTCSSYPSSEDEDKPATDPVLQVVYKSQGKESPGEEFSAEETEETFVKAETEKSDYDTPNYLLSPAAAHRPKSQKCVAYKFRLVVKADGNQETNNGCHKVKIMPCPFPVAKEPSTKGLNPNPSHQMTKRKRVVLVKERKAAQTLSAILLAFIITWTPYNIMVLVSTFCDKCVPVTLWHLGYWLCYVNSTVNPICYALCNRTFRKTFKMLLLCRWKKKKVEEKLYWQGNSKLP
The experiment is described as follows: Inhibition of [3H](R)-QNB binding to human M1/M5(o3) chimeric receptor expressed in A9 L cells. In kind it is cell-based, A9L.

Experiment [3] deals with Muscarinic acetylcholine receptor M3 (Homo sapiens, UniProt P20309). Nature of the experiment: Antagonist activity at human M3 receptor assessed as inhibition of carbachol […]. The conditions noted are these: read-out: pA2 (converted).
Chain of Muscarinic acetylcholine receptor M3 (P20309 whole entry): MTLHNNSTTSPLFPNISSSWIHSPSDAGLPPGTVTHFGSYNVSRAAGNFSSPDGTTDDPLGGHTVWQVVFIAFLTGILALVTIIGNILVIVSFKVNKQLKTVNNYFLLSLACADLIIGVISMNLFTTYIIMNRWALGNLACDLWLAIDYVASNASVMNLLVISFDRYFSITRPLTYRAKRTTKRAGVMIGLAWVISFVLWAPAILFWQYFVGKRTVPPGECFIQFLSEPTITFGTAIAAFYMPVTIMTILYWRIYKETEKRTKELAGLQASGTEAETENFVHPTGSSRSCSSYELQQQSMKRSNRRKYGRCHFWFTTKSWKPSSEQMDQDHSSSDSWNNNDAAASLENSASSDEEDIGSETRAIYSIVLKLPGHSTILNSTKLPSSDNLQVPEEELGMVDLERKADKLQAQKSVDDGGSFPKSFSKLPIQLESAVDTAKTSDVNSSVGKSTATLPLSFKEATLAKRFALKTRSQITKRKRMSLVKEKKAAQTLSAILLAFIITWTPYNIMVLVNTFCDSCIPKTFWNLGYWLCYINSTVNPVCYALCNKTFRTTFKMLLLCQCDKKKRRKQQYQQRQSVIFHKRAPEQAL

Chain of Muscarinic acetylcholine receptor M1 (P11229 whole entry E170K): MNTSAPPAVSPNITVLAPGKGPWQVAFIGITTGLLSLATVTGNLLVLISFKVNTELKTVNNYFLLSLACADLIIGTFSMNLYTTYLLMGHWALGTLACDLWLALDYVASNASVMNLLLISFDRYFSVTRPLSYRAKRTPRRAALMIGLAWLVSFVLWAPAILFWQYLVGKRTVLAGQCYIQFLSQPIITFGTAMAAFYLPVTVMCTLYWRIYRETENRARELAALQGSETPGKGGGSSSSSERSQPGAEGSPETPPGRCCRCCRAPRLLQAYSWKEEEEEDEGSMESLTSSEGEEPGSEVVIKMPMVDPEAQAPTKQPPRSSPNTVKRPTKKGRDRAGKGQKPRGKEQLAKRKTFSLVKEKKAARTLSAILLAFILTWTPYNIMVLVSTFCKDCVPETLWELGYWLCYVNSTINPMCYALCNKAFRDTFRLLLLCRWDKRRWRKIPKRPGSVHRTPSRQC

On to `COc1nsnc1OCCOCCOCCOCCOc1nsnc1C1=CCCN(C)C1`, for which a half-maximal effect in experiment [1] (EC50) was put at 2000 nM. Besides, the Ki (as a rule, a measure of affinity in units of concentration, obtained from inhibition or displacement) in experiment [2] is 126 nM. Also, the Kb in experiment [3] was 158 nM.

(Values after ChEMBL document CHEMBL1138216, “Design and synthesis of novel derivatives of the muscarinic agonist tetra(ethylene glycol)(3-methoxy-1,2,5-thiadiazol-4-yl) [3-(1-methyl-1,2,5,6-tetrahydropyrid-3-yl)-1,2,5-thiadiazol-4-yl] ether (CDD-0304): effects of structural modifications on the binding and activity at muscarinic receptor …” (J Med Chem, 2006).)
